Measured values as given in patent US7364900B2, “Multi-lineage directed induction of bone marrow stromal cell differentiation” (University of Medicine and Dentistry of New Jersey, priority 2001, dated 2008).

Test system: rMSCs
Experiment: Induction of nestin-positive endodermal/neuronal precursor cells from marrow stromal cells
Type: cell-based, rat
Settings: sub-confluent rMSCs, pre-induction media supplemented with 1 mM BME, 24 hours
Experimental: Rat MSCs are originally cultured in alpha-Modified Eagle's Medium (alpha-MEM) supplemented with 20% FBS, 2 mM L-glutamine, 100 units per milliliter penicillin, 100 […] streptomycin and 25 nanograms per milliliter amphotericin B. For each passage the cells are plated at about 8,000 cells per square centimeter and grown to confluency. At passage 6 the cells are transferred to DMEM (pH 8.0)/20% FBS without additional supplementation, and maintained beyond passage 14. Subconfluent cultures of rat and human MSCs are maintained in DMEM/20% FBS.
Twenty-four hours before induction of partial differentiation to nestin-positive precursor cells, medium is replaced with a pre-induction medium consisting of DMEM, 20% FBS and 1 millimolar β-mercaptoethanol. The cells are then transferred to a serum free endodermal/neuronal precursor induction medium composed of DMEM and 1-10 millimolar β-mercaptoethanol. […] To effect further differentiation to pancreatic islet cell phenotype, the partially differentiated nestin-positive endodermal/neuronal precursor cells are transferred to serum-free DMEM containing 1-10 mM β-mercaptoethanol with and without 10 nanograms/ml basic fibroblast growth factor (bFGF).
rMSCs are initially maintained in sub-confluent cultures in pre-induction media supplemented with 1 mM beta-mercaptoethanol (BME) for 24 hours. […]

With OCCS [BME, beta-mercaptoethanol] the changes in morphology was “no changes in morphology are evident”.
